Source: patent US8557526B2, “Synaptotagmin and collapsin response mediator protein as biomarkers for traumatic brain injury” (University of Florida Research Foundation, Inc., priority 2007, dated 2013)

Legend:
primary cortical neurons [1] = experiment: CRMP immunoblot after neurotoxin treatment of primary cortical neurons, with or without protease inhibitors; type: cell-based, rat; conditions: for CRMP5 after neurotoxin / intact CRMP1 and CRMP4 after neurotoxin: NMDA 200 μM 6 hours, maitotoxin 3 nM 3 hours; for integrity of intact CRMP2 / appearance of 55 kDa BDP after neurotoxin: NMDA 200 μM, MTX, STS 0.5 μM, EDTA 5 mM; for STS-mediated generation of the 55 kDa CRMP2 BDP (effect of inhibitor): STS 0.5 μM challenge, primary cortical neurons; for formation of the 55 kDa CRMP2 BDP after NMDA treatment (effect of inhibitor pretreatment): pretreatment of primary cortical culture
Experimental: Primary cortical neurons from first post-natal day Sprague-Dawley rat brains were plated on poly-L-lysine coated culture plates (Erie Scientific, Portsmouth, N.H., U.S.A.). Cells were dissociated with trypsin and DNase I, re-suspended in 10% plasma-derived horse serum (PDHS) in Dulbecco's modified Eagle's medium (DMEM), and plated on poly-L-lysine treated 35 mm (density: 3.0×10^6 cells per well) plates. Cells were allowed to grow in an atmosphere of 10% CO2 at 37° C. for three days and then treated with 1 μM 4-amino-6-hydrazino-7-β-D-ribofuranosyl-7H-pyrrolo (2,3-d)-pyrimidine-5-carboxamide (ARC) for two days. The ARC was removed and fresh 10% PDHS was added in DMEM, after which the cells were grown for an additional 10-14 days.
Protein concentrations of cell or tissue lysates were determined via Bio-Rad DC Protein Assay (Bio-Rad, Hercules, Calif.). Protein balanced samples were prepared for sodium dodecyl sulfate-polyacrylamide gel electrophoresis (SDS-PAGE) in a two-fold loading buffer containing 0.25 M Tris (pH 6.8), 0.2 M DTT, 8% SDS, 0.02% bromophenol blue, and 20% glycerol in distilled water. Samples were heated for 90 seconds at 90° C. and centrifuged for 2 minutes. Twenty micrograms (20 μg) of protein per lane were routinely resolved by SDS-PAGE on Tris-glycine gels for 2 hours at 130V. Following electrophoresis, separated proteins were laterally transferred to polyvinylidene fluoride (PVDF) membranes in a transfer buffer containing 39 mM glycine and 48 mM Tris-HCl (pH 8.3) 5% methanol at a constant voltage of 20 V for 2 hours at ambient temperature in a semi-dry transfer unit (Bio-Rad) by the semi-dry method.
Rat CRMP5 antibody (targeting to residues 369-564, Chemicon, Temecula, Calif.) was dialyzed with PBS using Slide-A-Lyzer MINI Dialysis Units, (Pierce, 3.5MWCO, 69550, Rockford, Ill.). Then CRMP5 was biotinylated by using EZ-link, sulfo-NHS-LC-LC-biotin by following the manufacture's instructions. Membranes were blotted either with anti-CRMP-1, or -4 (targeting residues 499-511, Chemicon), biotinylated-anti-CRMP5 antibodies or anti-CRMP2 (C4G) or a C-terminal anti-CRMP2 antibody raised against a synthetic peptides of residues 551-559), and developed with biotin and avidin-conjugated alkaline phosphatase (this step was skipped in CRMP5 blotting) and nitroblue tetrazolium and 5-bromo-4-chloro-3-indolyl phosphate. Quantitative evaluation of protein levels was performed via computer-assisted densitometric scanning (NIH Image J V.1.6 software).

primary cortical neurons [2] = experiment: LDH release assay of NMDA induced neuronal cell injury; type: cell-based, rat; conditions: for protection against NMDA induced neuronal cell injury (LDH release): time course, protection within 6 hours
Experimental: LDH release assays were performed to determine the role of calpain and caspase inhibition on NMDA induced neuronal cell injury, and to draw a link with CRMP2 degradation. The release of LDH, normally present in the cytoplasm of neurons, into the cell culture media can be used as a measure of dying cells.

[3] = system: rat cerebrocortical cultures; experiment: Synaptotagmin-1 fragmentation and vesicle organization in neurotoxin-challenged neuronal cultures; type: cell-based; conditions: for organization of synaptotagmin-coupled vesicles: cerebrocortical neurons and cerebellar granule neurons; for fragmentation of 65 kDa synaptotagmin-1 protein (33-36 kDa N-terminal fragments): oncotic, apoptotic and excitotoxic challenge
Experimental: Cerebrocortical cells harvested from 1-day old Sprague-Dawley rat brains were plated on poly-L-lysine coated on 6-well culture plates (Erie Scientific, Portsmouth, N.H., USA) at a density of 4.36×10^5 cells/mL. Cultures were maintained in Dulbecco's modified Eagle's medium (DMEM) with 10% fetal bovine serum in a humidified incubator in an atmosphere of 10% CO2 at 37° C. After 5 days in culture, the media were changed to DMEM with 5% horse serum. Subsequent media changes were performed three times a week. Experiments were performed on days 10 to 11 in vitro when astroglia had formed a confluent monolayer beneath morphologically mature neurons.
Cerebrocortical cultures (12-day-old) from above were washed three times with serum-free MEM.
After electrotransfer, blotting membranes were blocked for 1 hour at ambient temperature in 5% non-fat milk in TBS and 0.05% […] (TBST), then incubated in primary monoclonal synaptotagmin-1 antibody (BD Cat# 610434) in TBST with 5% milk at 1/50 dilution as recommended by the manufacturer at 4° C. overnight, followed by three washes with TBST and a 2 hour incubation at ambient temperature with a secondary antibody linked to biotinylated secondary antibody (Amersham, Cat # RPN1177v1) followed by a 30 min incubation with strepavidin-conjugated alkaline phosphatase (calorimetric method). Colorimetric development was performed with a one-step BCIP NBT reagent (KPL, Cat # 50-81-08). Molecular weights of intact synaptotagmin-1 protein and their potential breakdown products (BDPs) were assessed by running along side rainbow colored molecular weight standards (Amersham, Cat # RPN800V).

calpain = biological target: T1, calpain (Rattus norvegicus, UniProt Q07009); experiment: In vitro calpain digestion of naïve brain lysate (CRMP2 immunoblot); type: biochemical; conditions: pretreatment of naïve lysate
T1 construct: purchased Calbiochem
T1 sequence (Q07009 20-700 limits assumed): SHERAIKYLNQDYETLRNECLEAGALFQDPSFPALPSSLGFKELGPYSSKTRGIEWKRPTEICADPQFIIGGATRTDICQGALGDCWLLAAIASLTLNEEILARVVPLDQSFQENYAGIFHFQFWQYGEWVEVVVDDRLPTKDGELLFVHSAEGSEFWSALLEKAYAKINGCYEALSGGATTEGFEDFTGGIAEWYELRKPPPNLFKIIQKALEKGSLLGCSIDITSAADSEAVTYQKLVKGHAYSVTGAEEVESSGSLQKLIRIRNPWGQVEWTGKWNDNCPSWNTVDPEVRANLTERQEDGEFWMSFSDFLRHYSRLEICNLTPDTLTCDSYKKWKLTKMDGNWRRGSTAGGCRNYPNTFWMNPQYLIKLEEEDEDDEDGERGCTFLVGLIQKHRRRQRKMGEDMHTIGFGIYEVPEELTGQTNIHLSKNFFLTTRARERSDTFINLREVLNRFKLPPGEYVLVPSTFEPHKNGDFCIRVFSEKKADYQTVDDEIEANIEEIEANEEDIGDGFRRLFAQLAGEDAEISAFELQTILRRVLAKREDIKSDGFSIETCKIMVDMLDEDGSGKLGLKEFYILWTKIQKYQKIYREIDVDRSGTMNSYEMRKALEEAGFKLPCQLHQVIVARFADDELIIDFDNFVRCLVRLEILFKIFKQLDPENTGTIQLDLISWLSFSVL
T1 sequence (Q64537 88-270 partner limits assumed): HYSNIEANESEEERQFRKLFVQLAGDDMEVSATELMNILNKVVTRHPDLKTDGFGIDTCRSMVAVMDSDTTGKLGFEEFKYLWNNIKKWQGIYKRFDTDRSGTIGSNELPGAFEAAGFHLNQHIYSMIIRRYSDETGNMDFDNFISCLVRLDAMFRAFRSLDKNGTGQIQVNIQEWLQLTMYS
Experimental: (§1) In vitro digestion of rat brain lysate (5 mg) was performed with the purified proteases human erythrocyte calpain-1, rat recombinant calpain-2 (Calbiochem, San Diego, Calif.) and recombinant human caspase-3 (Chemicon, Temecula, Calif.) in a buffer containing 100 mM Tris-HCl (pH 7.4) and 20 mM DTT. For calpain, 2 mM CaCl2 was also added, and then incubated at room temperature for 30 minutes. For caspase-3, samples were incubated at 37° C. for four hours. Protease reactions were stopped by the addition of calpain inhibitor SJA6017 to a concentration of 30 μM (Senju Pharmaceuticals, Kobe, Japan) or pan-caspase inhibitor Z-VAD to a concentration of 20 μM and a protease inhibitor cocktail solution.
(§2) This example was to determine whether CRMP2 proteolysis was calpain mediated following TBI, similar to the proteolysis found in cell culture after neurotoxin treatment. […] The complete inhibition of calpain and caspase activity was confirmed by parallel monitoring of calpain and caspase associated αII-spectrin degradation. […] Therefore, calpain produced the 55 kDa CRMP-2 BDP, while caspase-3 was ruled out.

[4] = biological target: T2, recombinant human caspase-3 (Homo sapiens, UniProt P42574); experiment: In vitro caspase-3 digestion of naïve brain lysate (CRMP2 immunoblot); type: biochemical
T2 construct: purchased Chemicon
T2 sequence (P42574 29-175 limits assumed): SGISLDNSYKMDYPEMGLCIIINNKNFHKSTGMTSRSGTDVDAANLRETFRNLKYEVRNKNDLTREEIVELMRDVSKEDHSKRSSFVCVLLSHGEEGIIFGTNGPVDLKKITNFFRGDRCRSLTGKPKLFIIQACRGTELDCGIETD
T2 sequence (P42574 176-277 limits assumed): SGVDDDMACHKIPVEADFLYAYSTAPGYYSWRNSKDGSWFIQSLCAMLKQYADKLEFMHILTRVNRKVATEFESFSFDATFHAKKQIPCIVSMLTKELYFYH
Experimental: as §1, §2

Compound	CRMP5 after neurotoxin (primary cortical neurons [1])	intact CRMP1 and CRMP4 after neurotoxin (primary cortical neurons [1])	integrity of intact CRMP2 / appearance of 55 kDa BDP after neurotoxin (primary cortical neurons [1])	organization of synaptotagmin-coupled vesicles [3]	fragmentation of 65 kDa synaptotagmin-1 protein (33-36 kDa N-terminal fragments) [3]	STS-mediated generation of the 55 kDa CRMP2 BDP (effect of inhibitor) (primary cortical neurons [1])	formation of the 55 kDa CRMP2 BDP after NMDA treatment (effect of inhibitor pretreatment) (primary cortical neurons [1])	protection against NMDA induced neuronal cell injury (LDH release) (primary cortical neurons [2]; NMDA treatment)	also measured
CN[C@H](CC(=O)O)C(=O)O [NMDA, N-Methyl-D-Asparate]	no remarkable change	Decrease of CRMP1 and CRMP4	marked reduction	extensive disorganization	fragmented by calpain into N-terminal fragments	–	–	–	time of appearance of the 55 kDa CRMP2 BDP (primary cortical neurons [1]; NMDA 200 μM time course): ≤ 3 h; neuron death (LDH release) (primary cortical neurons [2]; NMDA treatment, peaking at 24 hours): induced significant neuron death after a 3 hour induction
C=CC[C@H](C)[C@H](C)C[C@@H](O)[C@H](O)[C@@H]1CC[C@@]2(C)O[C@@]3(C)C[C@@]4(C)O[C@H]5/C=C\C[C@H]6O[C@H]7C[C@H]8O[C@H]9C[C@@]%10(C)O[C@@](C)([C@@H]%11CC[C@H]%12O[C@@]%13(C)C[C@H]%14O[C@@]%15(C)C[C@H]%16O[C@@]%17(C)C[C@@H](O)[C@H]([C@@H]%18O[C@H]%19[C@H](O)[C@@H](O)[C@H](C[C@H](O)C[C@@H](O)[C@@H]%20O[C@H]%21[C@H](O)[C@@H](O)[C@H]([C@@H]%22O[C@@H]%23[C@H](O)[C@H]%24O[C@H]%25C[C@H]%26O[C@@H](C[C@H](O)[C@@H](O)[C@H]%27O[C@H]%28[C@H](O)[C@H]%29O[C@H]%30C[C@H]%31O[C@H]%32[C@@H](O)[C@@H](O)[C@H]([C@H](C)[C@H](O)[C@H](C)CC[C@H](OS(=O)(=O)O)[C@H](O)[C@H](C)C[C@@H](O)C(=C)/C(C)=C/CO)O[C@@H]%32[C@H](O)C[C@]%31(C)O[C@@H]%30C[C@]%29(C)O[C@@H]%28C[C@H]%27O)[C@H](OS(=O)(=O)O)[C@H](O)[C@@H]%26O[C@@H]%25C[C@@H]%24O[C@H]%23[C@H](O)[C@H]%22O)O[C@H]%21C[C@H]%20O)O[C@H]%19C[C@H]%18O)O[C@@H]%17[C@H](O)[C@]%16(C)O[C@@H]%15CC[C@]%14(C)O[C@@H]%13C[C@@H]%12O%11)[C@H](O)C[C@@H]%10O[C@]9(C)CC[C@]8(C)O[C@]7(C)C[C@@H]6O[C@@H]5C[C@@H]4O[C@@H]3C[C@@H]2O1 [MTX, maitotoxin]	no remarkable change	Decrease of CRMP1 and CRMP4	–	extensive disorganization	fragmented by calpain into N-terminal fragments	–	–	–	–
CN[C@@H]1C[C@H]2O[C@@](C)([C@@H]1OC)n1c3ccccc3c3c4c(c5c6ccccc6n2c5c31)C(=O)NC4 [STS, staurosporine]	–	–	rapidly degraded to the 55 kDa BDP	–	fragmented by calpain into N-terminal fragments	–	–	–	–
CC(C)C[C@@H](C=O)NC(=O)[C@@H](NS(=O)(=O)c1ccc(F)cc1)C(C)C [SJA6017]	–	–	–	–	–	effectively blocked	prevented the formation of the 55 kDa CRMP2 BDP	significant protection within 6 hours	protection of neurons from excitotoxic injury after 12 hours (primary cortical neurons [2]; preincubation with inhibitor, after 12 hours): did not effectively protect; formation of the 55 kDa CRMP-2 BDP by calpain in naïve brain lysate (effect of inhibitor) (calpain): blocked formation of the 55 kDa CRMP-2 BDP
Z-VAD	–	–	–	–	–	offered no protection	not	no protection	66 kDa intact CRMP2 band after caspase-3 treatment with inhibitor [4]: did completely disappear
